Assay results: patent US12098148B2, “Therapeutic compounds” (C4X Discovery Limited, priority 2018, dated 2024)

Key:
[1] = tested on: NQO1 mRNA in BEAS-2B cells; experiment: Beas2B NQO1 mRNA cell based assay; design: species or system human; settings: Homo sapiens, BEAS-2B, 24 h, 24 h compound treatment, increase in NQO1 mRNA vs vehicle (0.1% DMSO), read-out: EC50
Procedure: Beas2B NQO1 mRNA Cell Based Assay
The up regulation of the NRF2 mediated gene NAD(P)H:quinone acceptor oxidoreductase 1 (NQO1) was measured using the following assay method: BEAS-2B cells (ATCC CRL-9609) were plated in 96-well clear plates at 20,000 cells/well in 75 μL of cell culture media and incubated overnight (37° C., 5% CO2). On day 2, 25 μL of compound or controls were added to the cells for 24 h. On day 3, the medium was aspirated from the plate and the Cells-to-CT™ 1-Step TaqMan® Kit (Ambion A25603) was used to perform expression analysis directly from cultured cells without RNA purification according to the manufacturer's instructions.
Briefly, cells were washed with ice cold PBS and 22.5 μL of room-temperature DNase/Lysis solution was added to the cells and incubated at room temperature for 5 minutes. To stop the reaction, 2.25 μL of stop solution was added to the cell lysate. The samples were diluted 1:5 using nuclease free water and 2.5 μL transferred into the PCR plate. Real-time PCR was performed using the C-1000 Thermal Cycler (Bio-Rad) using human beta actin as the internal control. The cDNA was amplified with a specific primer for NQO1 using the 1-step RT-PCR master mix (Ambion Cells-to-CT™ 1-Step TaqMan® Kit A25603). The primers/probes sets that were used for amplification of cDNA were obtained from TaqMan Gene Expression Assays (Applied Biosystems). The comparative CT (ΔΔCT) relative quantification method was used to calculate the relative mRNA level of the target gene NQO1 as described in the Applied Biosystems Chemistry Guide.

[2] = target: human KEAP1 (N-term, residues 321-609) (Homo sapiens, UniProt Q14145); experiment: biochemical;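 further: fluorescence polarization competition assay of Kelch domain binding to NRF2, 12-point 1:3 dilution series from 10 µM, read after 1 h at room temperature, floor 10 nM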
human KEAP1 (N-term, residues 321-609), sequence (Q14145 321-609): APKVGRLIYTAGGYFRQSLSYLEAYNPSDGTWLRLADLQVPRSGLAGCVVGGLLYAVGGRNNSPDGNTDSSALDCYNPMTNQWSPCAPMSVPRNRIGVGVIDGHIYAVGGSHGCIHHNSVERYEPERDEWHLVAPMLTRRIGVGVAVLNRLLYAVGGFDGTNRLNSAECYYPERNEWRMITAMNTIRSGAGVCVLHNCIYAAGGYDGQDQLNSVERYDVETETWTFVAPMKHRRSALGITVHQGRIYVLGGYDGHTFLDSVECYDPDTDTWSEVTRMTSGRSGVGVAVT

SMILES	EC50 [1] [nM]	IC50 [2] [nM]
CCn1ncc(COc2ccc(Br)c3c2[C@@H](CN2Cc4ccccc4C2=O)N(C(=O)[C@@H]2CCCC[C@@H]2C(=O)O)CC3)n1 [Example 27, (1S,2R)-2-((S)-5-bromo-8-((2-ethyl-2H-1,2,3-triazol-4-yl)methoxy)-1-((1-oxoisoindolin-2-yl)methyl)-1,2,3,4-tetrahydroisoquinoline-2-carbonyl)cyclohexane-1-carboxylic acid]	18	8.3
Cc1cnc(COc2ccc(Br)c3c2[C@@H](CN2Cc4ccccc4C2=O)N(C(=O)[C@@H]2CCCC[C@@H]2C(=O)O)CC3)s1 [Example 28, (1S,2R)-2-((S)-5-Bromo-8-((5-methylthiazol-2-yl)methoxy)-1-((1-oxoisoindolin-2-yl)methyl)-1,2,3,4-tetrahydroisoquinoline-2-carbonyl)cyclohexane-1-carboxylic acid]	93	14
Cn1ncnc1COc1ccc(Br)c2c1[C@@H](CN1Cc3ccccc3C1=O)N(C(=O)[C@@H]1CCCC[C@@H]1C(=O)O)CC2 [Example 29, (1S,2R)-2-((S)-5-Bromo-8-((1-methyl-1H-1,2,4-triazol-5-yl)methoxy)-1-((1-oxoisoindolin-2-yl)methyl)-1,2,3,4-tetrahydroisoquinoline-2-carbonyl)cyclohexane-1-carboxylic acid]	100	16
O=C(O)[C@H]1CCCC[C@H]1C(=O)N1CCc2c(Br)ccc(OCc3cccnn3)c2[C@H]1CN1Cc2ccccc2C1=O [Example 30]	17	9.2
O=C(O)[C@H]1CCCC[C@H]1C(=O)N1CCc2c(Br)ccc(OCc3cn(CC4CC4)nn3)c2[C@H]1CN1Cc2ccccc2C1=O [Example 31, (1S,2R)-2-((S)-5-bromo-8-((1-(cyclopropylmethyl)-1 1,2,3-triazol-4-yl)methoxy)-1-((1-oxoisoindolin-2-yl)methyl)-1,2,3,4-tetrahydroisoquinoline-2-carbonyl)cyclohexane-1-carboxylic acid]	8.5	4.5
O=C(O)[C@H]1CCCC[C@H]1C(=O)N1CCc2c(Br)ccc(OCc3ccn4ccnc4c3)c2[C@H]1CN1Cc2ccccc2C1=O [Example 32]	75	6
Cn1cnc2cc(COc3ccc(Br)c4c3[C@@H](CN3Cc5ccccc5C3=O)N(C(=O)[C@@H]3CCCC[C@@H]3C(=O)O)CC4)ccc21 [Example 33, (1S,2R)-2-((S)-5-bromo-8-((1-methyl-1H-benzo[d]imidazol-5-yl)methoxy)-1-((1-oxoisoindolin-2-yl)methyl)-1,2,3,4-tetrahydroisoquinoline-2-carbonyl)cyclohexane-1-carboxylic acid]	22	5.1
Cn1cc(COc2ccc(Br)c3c2[C@@H](CN2Cc4ccccc4C2=O)N(C(=O)[C@@H]2CCCC[C@@H]2C(=O)O)CC3)nn1 [Example 34, (1S,2R)-2-((S)-5-bromo-8-((1-methyl-1H-1,2,3-triazol-4-yl)methoxy)-1-((1-oxoisoindolin-2-yl)methyl)-1,2,3,4-tetrahydroisoquinoline-2-carbonyl)cyclohexane-1-carboxylic acid]	3.3	5
CC(C)n1cc(COc2ccc(Br)c3c2[C@@H](CN2Cc4ccccc4C2=O)N(C(=O)[C@@H]2CCCC[C@@H]2C(=O)O)CC3)nn1 [Example 35, (1S,2R)-2-((S)-5-Bromo-8-((1-isopropyl-1H-1,2,3-triazol-4-yl)methoxy)-1-((1-oxoisoindolin-2-yl)methyl)-1,2,3,4-tetrahydroisoquinoline-2-carbonyl)cyclohexane-1-carboxylic acid]	7.5	9.9
Cc1nnc(COc2ccc(Br)c3c2[C@@H](CN2Cc4ccccc4C2=O)N(C(=O)[C@@H]2CCCC[C@@H]2C(=O)O)CC3)o1 [Example 36, (1S,2R)-2-((S)-5-bromo-8-((5-methyl-1,3,4-oxadiazol-2-yl)methoxy)-1-((1-oxoisoindolin-2-yl)methyl)-1,2,3,4-tetrahydroisoquinoline-2-carbonyl)cyclohexane-1-carboxylic acid]	130	11
COc1cc(COc2ccc(Br)c3c2[C@@H](CN2Cc4ccccc4C2=O)N(C(=O)[C@@H]2CCCC[C@@H]2C(=O)O)CC3)cc2nnn(C)c12 [Example 37, (1S,2R)-2-((S)-5-bromo-8-((7-methoxy-1-methyl-1H-benzo[d][1,2,3]triazol-5-yl)methoxy)-1-((1-oxoisoindolin-2-yl)methyl)-1,2,3,4-tetrahydroisoquinoline-2-carbonyl)cyclohexane-1-carboxylic acid]	44	13
Cn1nnc2cc(COc3ccc(Br)c4c3[C@@H](CN3Cc5ccccc5C3=O)N(C(=O)[C@@H]3CCCC[C@@H]3C(=O)O)CC4)ccc21 [Example 38, (1S,2R)-2-((S)-5-bromo-8-((1-methyl-1H-benzo[d][1,2,3]triazol-5-yl)methoxy)-1-((1-oxoisoindolin-2-yl)methyl)-1,2,3,4-tetrahydroisoquinoline-2-carbonyl)cyclohexane-1-carboxylic acid]	17	9.3
Cn1cnc(COc2ccc(Br)c3c2[C@@H](CN2Cc4ccccc4C2=O)N(C(=O)[C@@H]2CCCC[C@@H]2C(=O)O)CC3)n1 [Example 39, (1S,2R)-2-((S)-5-bromo-8-((1-methyl-1H-1,2,4-triazol-3-yl)methoxy)-1-((1-oxoisoindolin-2-yl)methyl)-1,2,3,4-tetrahydroisoquinoline-2-carbonyl)cyclohexane-1-carboxylic acid]	45	8.3
CC(C)n1ccnc1COc1ccc(Br)c2c1[C@@H](CN1Cc3ccccc3C1=O)N(C(=O)[C@@H]1CCCC[C@@H]1C(=O)O)CC2 [Example 40, (1S,2R)-2-((S)-5-bromo-8-((1-isopropyl-1H-imidazol-2-yl)methoxy)-1-((1-oxoisoindolin-2-yl)methyl)-1,2,3,4-tetrahydroisoquinoline-2-carbonyl)cyclohexane-1-carboxylic acid]	94	9
Cn1nnc(COc2ccc(Br)c3c2[C@@H](CN2Cc4ccccc4C2=O)N(C(=O)[C@@H]2CCCC[C@@H]2C(=O)O)CC3)c1C(F)F [Example 41, (1S,2R)-2-((S)-5-bromo-8-((5-(difluoromethyl)-1-methyl-1H-1,2,3-triazol-4-yl)methoxy)-1-((1-oxoisoindolin-2-yl)methyl)-1,2,3,4-tetrahydroisoquinoline-2-carbonyl)cyclohexane-1-carboxylic acid]	1.5	5.2
CCn1cnnc1COc1ccc(Br)c2c1[C@@H](CN1Cc3ccccc3C1=O)N(C(=O)[C@@H]1CCCC[C@@H]1C(=O)O)CC2 [Example 42, (1S,2R)-2-((S)-5-bromo-8-((4-ethyl-4H-1,2,4-triazol-3-yl)methoxy)-1-((1-oxoisoindolin-2-yl)methyl)-1,2,3,4-tetrahydroisoquinoline-2-carbonyl)cyclohexane-1-carboxylic acid]	18	7.9
CCn1cnc(COc2ccc(Br)c3c2[C@@H](CN2Cc4ccccc4C2=O)N(C(=O)[C@@H]2CCCC[C@@H]2C(=O)O)CC3)c1C#N [Example 43, (1S,2R)-2-((S)-5-bromo-8-((5-cyano-1-ethyl-1H-imidazol-4-yl)methoxy)-1-((1-oxoisoindolin-2-yl)methyl)-1,2,3,4-tetrahydroisoquinoline-2-carbonyl)cyclohexane-1-carboxylic acid]	18	10
